{"source": "patent US20050214938A1", "about": "“Cardiac bodies: clusters of spontaneously contracting cells for regenerating cardiac function” (priority 2004, published 2005)", "key": {"[1]": {"test_system": "hES-derived cardiomyocytes", "assay": "Pharmacological response: contraction rate of beating areas", "format": "cell-based, human", "settings": "for chronotropic effect: FIG. 5 Panels B-E", "method": "EBs were plated on to gelatin-coated 24-well plates and allowed to differentiate, as in Example 2. Contracting cardiomyocytes at differentiation day 15-21 were used for examining pharmacological response. The frequency of the spontaneous beating was measured by counting the contraction rate of the beating areas maintained in the differentiation medium in a 37° C. heating chamber of an inverted microscope. The cells were then incubated with test compounds in the incubator for 20-30 min, and observed for contraction rate. Dose-dependent effects were determined by cumulatively applying of increasing concentrations of each substrate. Data represent the mean pulsation rate±standard error of the mean measured on 10-20 beating areas.\nDifferentiated cells were incubated with various concentrations of the drug and the number of beats per minute was counted. The cells were then washed with medium, maintained in differentiation medium for 24 h and observed for the time taken to recover contractility."}, "[2]": {"test_system": "cardiomyogenic cell line from bone marrow stroma", "settings": "treated for 24 hours; cited from earlier work"}, "mouse ES cells": {"test_system": "mouse ES cells", "settings": "Wobus et al. 1997; cited from earlier work"}, "[3]": {"test_system": "hES cells of the H1 or H9 line", "method": "hES cells of the H1 or H9 line being cultured as embryoid bodies were treated at differentiation day 1-4,4-6 or 6-8 with 5-aza-deoxy-cytidine, a cytosine analog that affects DNA methylation, thereby activating gene expression. Cells were harvested at day 15, and analyzed for cardiac α-MHC by real-time RT-PCR.\nThe RT-PCR assay from Example 3 was adapted for the Taqman™ 7700 sequence detection system using the same primers, amplifying for 40 cycles at 95° C. for 15 sec and 60° C. for 1 min. 18S ribosomal RNA was amplified for a control using a kit for Taqman™ ribosomal RNA control reagents (Applied Biosystems). Reactions were analyzed by ABI Prism™ 7700 Sequence Detection system.\nOther reagents examined for an ability to induce cardiomyocyte differentiation included dimethyl sulfoxide (DMSO) and all-trans retinoic acid (RA).\nRetinoic acid was applied to differentiating hES cultures at doses between 10^−9 and 10^−[…]."}, "hES cells of the H7 line": {"test_system": "hES cells of the H7 line", "assay": "Direct differentiation paradigm without embryoid body stage", "format": "cell-based, human", "settings": "10 μM at day 10-12 or 12-14", "method": "Cardiomyocyte differentiation was also achieved in a direct differentiation paradigm. Undifferentiated hES cells of the H7 line were dissociated and plated directly onto gelatin-coated plates without going through an embryoid body stage. The plated cells were cultured in differentiation medium (80% KO-DMEM, 1 mM L-glutamine, 0.1 mM p-mercaptoethanol, 1% amino acids, and 20% fetal bovine serum). Contracting cardiomyocytes were found at day 18 in cultures treated with 10 μM 5-aza-deoxy-cytidine at day 10-12 or 12-14, and at later times in all cultures."}}}
{"smiles": "CC(C)NCC(O)c1ccc(O)c(O)c1", "note": "(centres unmarked) [isoprenaline]", "values": [{"measurement": "chronotropic effect", "setting": "[1]", "result": "positive chronotropic effects"}]}
{"smiles": "CC(C)(C)NCC(O)c1cc(Cl)c(N)c(Cl)c1", "note": "(centres unmarked) [clenbuterol]", "values": [{"measurement": "beating rate after treatment", "setting": "[1]; cells taken at Day 72, 1-10 nM, from about 72 beats/min, p<0.005", "result": "about 98 beats/min"}]}
{"smiles": "Nc1ncn([C@@H]2O[C@H](CO)[C@@H](O)[C@H]2O)c(=O)n1", "note": "[5-azacytidine]", "values": [{"measurement": "cells forming myotube-like structures, acquiring cardiomyocyte markers and beginning to beat", "setting": "[2]", "result": 30, "unit": "%"}]}
{"smiles": "CC1=C(/C=C/C(C)=C/C=C/C(C)=C/C(=O)O)C(C)(C)CCC1", "note": "[RA, all-trans retinoic acid]", "values": [{"measurement": "effect on cardiac differentiation", "setting": "mouse ES cells", "result": "accelerates ES cell-derived cardiac differentiation"}, {"measurement": "beating cells compared with untreated cultures", "setting": "[3]; days 4-8, 8-15, or 4-15, doses between 10^−9 and 10^−5 μM", "result": "no increase"}]}
{"smiles": "C[S+](C)[O-]", "note": "[DMSO, dimethyl sulfoxide]", "values": [{"measurement": "toxicity to the cells", "setting": "[3]", "result": "toxic"}, {"measurement": "beating areas compared with non-treated cultures", "setting": "[3]; 0.5%, days 0-4", "result": "fewer beating areas"}, {"measurement": "beating cells", "setting": "[3]; 0.8% or 1%", "result": "absent"}, {"measurement": "α-MHC expression compared with untreated cultures", "setting": "[3]; DMSO treatment", "result": "significant reduction"}]}
{"smiles": "COc1ccc([C@@H]2Sc3ccccc3N(CCN(C)C)C(=O)[C@@H]2OC(C)=O)cc1", "note": "[diltiazem]", "values": [{"measurement": "beating areas that stopped contraction", "setting": "[1]; 10^−5 M", "result": 100, "unit": "%"}, {"measurement": "inhibition of beating rate", "setting": "[1]; differentiation day 15-21, 20-30 min incubation, increasing concentrations", "result": "concentration-dependent manner"}]}
{"smiles": "Nc1ncn([C@H]2C[C@H](O)[C@@H](CO)O2)c(=O)n1", "note": "[5-aza-deoxy-cytidine]", "values": [{"measurement": "day at which contracting cardiomyocytes were found", "setting": "hES cells of the H7 line", "result": 18, "unit": "days"}, {"measurement": "expression of cardiac α-MHC", "setting": "[3]; 1 to 10 μM at day 6-8, harvested day 15", "result": "significantly increased"}]}
{"smiles": "CNC[C@H](O)c1cccc(O)c1", "note": "[phenylephrine]", "values": [{"measurement": "chronotropic effect", "setting": "[1]", "result": "positive chronotropic effects"}]}
